The values below come from EP0511381B1, “SQUARYLIUM AND CROCONYLIUM DYES” (POLAROID CORPORATION, priority 1990, dated 1992).

Where a name gives a salt, the structure may show the parent alone.

Assay type in all cases: physicochemical
Series [1] can be described thus: Solubility in dichloromethane (saturated solution). Particulars: weight percentage of dye to solvent in a saturated solution. The source says: This Example illustrates the high solubility in halogenated organic solvents which can be achieved by dyes of the present invention, as compared with similar dyes which bear 2-phenyl or -substituted phenyl groups.
Series [2] in a line: Storage stability of thermal imaging medium containing the dye. Particulars: imaging medium (dye, leuco dye LD3, polyurethane Estane 5715 binder) stored at 60°C for 4 days. Here is the method: A coating fluid was prepared by combining the infra-red dye of Formula IR4 above (prepared in Example 12 above, 2.6 mg) with a leuco dye of Formula LD3 above (110 mg) and a polymeric binder (polyurethane Estane 5715, supplied by B.F. Goodrich, 0.73 mL of a 15% solution in acetone). The fluid was diluted with acetone (0.157 mL), then coated onto a 4 mil (101 »m) transparent poly(ethylene terephthalate) base using a #12 coating rod. The film so formed was laminated at 180°F […] and 60 psi (0.4 MPa) to a second sheet of 4 mil (101 »m) poly(ethylene terephthalate) which had been coated with Joncryl 138 to a thickness of approximately 2 »m.

Series [3] can be described thus: Absorption and thermal stability of dye in polymer films. Set-up: λmax: unit not given here. To be noted: for Width: full width of infra-red absorption peak at half maximum. Here is the method: This Example illustrates the high absorptions which can be achieved by a dye of the present invention when dispersed in a polymer, and the thermal stability of such dispersed polymer.
The polymers tested in this Example were polystyrene/acrylonitrile, polyvinylbutyral and polyvinylformal polymers. 10.0 mg of the dye (hereinafter referred to as "Dye B") prepared as described in Example 5 above was dissolved in 2.0 mL of a 2.5% w/v solution of each polymer in dichloromethane, and the resultant solution was coated onto a transparent 4 mil polyvinyl chloride base using a No. 10 coating rod. The resultant film was oven dried at 80°C for 10 minutes. After the film had cooled, the wavelength of maximum infra-red absorption (λmax), the absorbance at λmax (Amax), and the full width of the infra-red absorption peak at half maximum were measured. The film samples were then stored in the dark for 15 days at 80°C, and the same absorption parameters were remeasured to give the data shown in Table 1, in which initial values are shown, with values after heating in parentheses.

The nature of series [4]: Photochemical stability of dye in polymer films. Here is the method: This Example illustrates the photochemical stability of a dye of the present invention in a polymer matrix.
20 mg of Dye B prepared as described in Example 5 above and 100 mg of a test polymer (polyvinylbutyral or polyacrylate) were dissolved in dichloromethane, and the resultant solution was coated onto PET transparent base using a #4 coating rod. The maximum absorbance of the resultant film was measured before and after exposure of the coated side of the base to irradiation with a fluorescent lamp (560 ft. candles) for 24 or 67 hours. The results are shown in Table 2 below (with the absorbance after irradiation in parentheses).

Where [5] appears, read: Polyvinylbutyral film, after 15 days at 80°C in the dark.
The mark [6] stands for this setting: Polyvinylbutyral film, initial value.
Where [7] appears, read: Polyvinylformal film, after 15 days at 80°C in the dark.
Where [8] appears, read: Polyvinylformal film, initial value.
Setting [9] is: SAN (polystyrene/acrylonitrile) film, after 15 days at 80°C in the dark.
The mark [10] stands for this setting: SAN (polystyrene/acrylonitrile) film, initial value.

For `CCN(CC)c1ccc2c(c1)OC(c1ccc(C)cc1C)=CC2=CC1=C([O-])C(=Cc2cc(-c3ccc(C)cc3C)[o+]c3cc(N(CC)CC)ccc23)C1=O` [Control Dye z, reference compound], in series [1], the Solubility was found to be 0.1 wt. %.
In series [1], `CCN(CC)c1ccc2c(c1)OC(c1ccccc1)=CC2=CC1=C([O-])C(=Cc2cc(-c3ccccc3)[o+]c3cc(N(CC)CC)ccc23)C1=O` [Control Dye y, reference compound] showed a Solubility of 0.02 wt. %.
For the molecule `CCN(CC)c1ccc2c(c1)OC(C1CCCCC1)=CC2=CC1=C([O-])C(=Cc2cc(C3CCCCC3)[o+]c3cc(N(CC)CC)ccc23)C1=O` [Dye F, 4-[[3-[2-cyclohexyl-7-diethylamino-(benz[b]-4H-pyran-4-ylidene)methyl]-2-hydroxy-4-oxo-2-cyclobuten-1-ylidene]methyl]-2-cyclohexyl-7-diethylaminobenz[b]pyrylium hydroxide inner salt dye], the Solubility in series [1] worked out at 0.4 wt. %.
As to `CCC(CC)COc1ccc2c(c1)OC(C(C)(C)C)=CC2=CC1=C([O-])C(=Cc2cc(C(C)(C)C)[o+]c3cc(N(CC)CC)ccc23)C1=O` [IR4, 4-[[3-[[7-diethylamino-2-[1,1-dimethylethyl]benz[b]-4H-pyran-4-ylidene]methyl]-2-hydroxy-4-oxo-2-cyclobuten-1-ylidene]methyl]-7-[2-ethylbut-1-oxy]-2-[1,1-dimethylethyl]benz[b]pyrylium hydroxide inner salt dye], in series [2], the “loss of near infra-red absorption” value stood at 2.4%.
As to `CCN(CC)c1ccc2c(c1)OC(C(C)(C)C)=CC2=CC1=C([O-])C(=Cc2cc(C(C)(C)C)[o+]c3cc(N(CC)CC)ccc23)C1=O` [Dye B], the Amax in series [3] (setting [5]) was found to be 2.16; in series [3] (setting [6]), 2.99; in series [3] (setting [7]) it was 2.64; in series [3] (setting [8]), 2.62; in series [3] (setting [9]), 2.68; in series [3] (setting [10]), 2.59. Further, the Amax stood at 0.78 in series [4] (Polyacrylate film, after 24 hours irradiation with fluorescent lamp (560 ft. candles)); 0.84 in series [4] (Polyacrylate film, before irradiation); 1.018 in series [4] (Polyvinylbutyral film, after 67 hours irradiation with fluorescent lamp (560 ft. candles)); 1.225 in series [4] (Polyvinylbutyral film, before irradiation). In addition, the λmax in series [3] (setting [5]) was 812; in series [3] (setting [6]) it was 815; in series [3] (setting [7]), 820 (820); in series [3] (setting [8]), 820 (820); in series [3] (setting [9]), 826 (826); in series [3] (setting [10]), 826 (826). Further, the Width in series [3] (setting [5]) is recorded as 79 nm; in series [3] (setting [6]), 70 nm; in series [3] (setting [7]), 80 (80) nm; in series [3] (setting [8]) it was 80 (80) nm; in series [3] (SAN film, after 15 days at 80°C in the dark), 74 (74) nm; in series [3] (SAN film, initial value), 74 (74) nm. Besides, the Solubility in series [1] came out at 11.5 wt. %.
